One assay deals with sheep platelet PLA2. As to the kind of experiment: Micromolar Calcium-Dependent PLA2 Assay (sheep platelet cytosolic PLA2). The class given is biochemical. The note with it: pH 7.2, 1 μM CaCl2, 1 μM substrate, 10 min at 37° C. The source says: (§1) Specifically, one micromolar calcium-dependent mammalian PLA2 assay was used, i.e., sheep platelet PLA2, and two millimolar calcium-dependent mammalian PLA2 assays were used, i.e., human synovial fluid PLA2 and porcine pancreatic PLA2. The PLA2 enzymes represent different groups of PLA2 enzymes. Myocardial PLA2, platelet PLA2 and secreted PLA2 enzymes (human synovial fluid PLA2 and porcine pancreatic PLA2) have very different calcium requirements, which may be typical of their respective classes.
Micromolar Calcium-Dependent PLA2 Assay
Homogeneous sheep platelet cytosolic PLA2 was prepared as described by Loeb, L. A., and Gross, R. W., J. Biol. Chem., 261, 10467-10470 (1986). The purified calcium-dependent platelet PLA2 was preincubated in 70 mM Tris-Cl (pH 7.2) containing 1 μM CaCl2 and test compound for 5 min. at 25° C. Catalysis was initiated by injection of 1 μM radiolabeled substrate (1-O-(Z)-(1'-hexadecenyl)-2-[9,10^-3 H]-oleoyl-3-phosphorylcholine). After a 10 min. incubation period at 37° C., reaction products were extracted with n-butanol, separated by thin layer chromatography, and quantified by scintillation spectrometry. PLA2 activity was compared in the presence and absence of test compound and the IC50 was determined.
See Zupan, L. A., et al, "Calcium is sufficient but not necessary for activation of sheep platelet cytosolic phospholipase A2 ", FEBS Letters, Vol. 284, No. 1, 27-30 (1991).

In another assay the test system is HL-60 cells. As to the kind of experiment: HL-60 Cell Assay for LTB4 and PGE2 Production (calcium ionophore A23187 induced). It counts as cell-based. The note with it: Homo sapiens; for IC50: A23187 5×10^-6 M. Here is the method: An additional whole cell assay was also performed. In this assay, HL-60 cells are induced with the calcium ionophore A23187 in the presence of varying amounts of inhibitor, and the amounts of the prostaglandin E2 (PGE2) and leukotriene B4 (LTB4) which form are measured. Calcium ionophore A23187 activates a calcium-dependent PLA2 which leads to the enhanced production of the arachidonic acid metabolites PGE2 and LTB4. The concentrations of inhibitor which decrease the production of PGE2 and LTB4 by 50% relative to controls are expressed as IC50 values.
HL-60 Cell Assay for LTB4 and PGE2 Production
HL-60 cells grown exponentially in culture were induced to differentiate into granulocytes by a four day incubation with 0.8% (v/v) N,N-dimethylformamide. Prior to assay, differentiated HL-60 cells were washed once with Hanks' balanced salt solution containing 0.35 mg/mL sodium bicarbonate and 10 mM Hepes, pH 7.3 (HBSS) and resuspended in HBSS at a 3×10^6 cells/mL concentration. DMSO or test compounds solubilized in DMSO were added at 1:100 dilution to 1.0 mL HL-60 cell suspensions (3×10^6 cells) and preincubated at 37° C. for 10 min. in a shaking water bath. After an additional 5 min. incubation with 5×10^-6 M calcium ionophore, A23187 (Calbiochem, LaJolla, Calif.), the cells were centrifuged at 12,800×6 for 15 seconds and the supernatant (0.8 mL) removed and stored at -20° C. for LTB4 and PGE2 quantitation by radioimmunoassay (kits obtained from Amersham, United Kingdom and NEN Research Products, N. Billerica, Mass.).

Assay [1] deals with purified calcium-independent canine myocardial PLA2. The assay can be described thus: Calcium-Independent PLA2 Assay (purified canine myocardial cytosolic PLA2, release of radiolabeled oleic acid). The class given is biochemical. The settings on record: pH 7.0, 6.4 mM EGTA, 1 μM substrate, 5 min at 37° C., read-out: IC50 Canine Heart PLA2. The protocol: This assay consists of determining the amount of radiolabeled fatty acid which is liberated from the radiolabeled phospholipid substrate by purified calcium-independent canine myocardial PLA2 in the presence of varying concentrations of the inhibitor. The concentration of inhibitor which decreases the activity of the enzyme to 50% of the activity observed in the absence of that inhibitor is determined. This concentration is defined as the IC50.
Calcium-Independent PLA2 Assay
Purified canine myocardial cytosolic PLA2 was isolated from an ATP-agarose eluate as described by Wolf, R. A., and Gross, R. W., J. Biol. Chem., 260, 7295-7303 (1985). The calcium-independent myocardial PLA2 was incubated with selected concentrations (10^-10 to 10^-4 M) of test compound in 168 mM Tris-Cl, 6.4 mM EGTA (a calcium chelator) (pH 7.0) for 5 min. at 25° C. Appropriate controls were performed in the absence of test compound. Catalysis was initiated by injection of 1 μM radiolabeled substrate (1-O-(Z)-(1'-hexadecenyl)-2-[9,10^-3 H]-oleoyl-3-phosphorylcholine). After a 5 min. incubation at 37° C., reaction products were extracted with n-butanol, separated by thin layer chromatography, and quantified by scintillation spectrometry. PLA2 activity was compared in the presence and absence of test compound and the IC50 was determined.

The next assay concerns the target T1, porcine pancreatic PLA2 (Sus scrofa, UniProt P00592).
T1 construct: Purified porcine pancreatic PLA2 was obtained from Sigma; purchased Sigma (St. Louis, Mo.); host or cells: porcine pancreas
The assay can be described thus: Millimolar Calcium-Dependent PLA2 Assay (porcine pancreatic PLA2, [14C]-oleate labeled E. coli substrate). The class given is biochemical.
Text: as §1
(§2) Millimolar Calcium-Dependent PLA2 Assays
Purified porcine pancreatic PLA2 was obtained from Sigma (St. Louis, Mo.). PLA2 activity was measured by using [14C]-oleate labeled autoclaved E. coli as described by Franson, Patriarca and Elsbach (referenced above). The assay was performed at 37° C. for 5 min. in a final volume of 100 μL Tris-HCl buffer (100 mM, pH 8.0) containing 1 mM EDTA, 10 mM CaCl2, and E. coli (containing […] phospholipid). The test compound or control vehicle was preincubated with PLA2 for 5 min. followed by adding E. coli to initiate the reaction. The reaction was terminated by adding 2 mL tetrahydrofuran. The reaction product [^14 C]-oleic acid, was isolated using a 1 mL Bond Elute--NH2 column and counted by liquid scintillation spectrometry.

Assay [2] addresses T2, human synovial fluid PLA2 (Homo sapiens, UniProt P14555).
T2 construct: Purified human synovial fluid PLA2; tissue R. C; Franson (Medical College of Virginia, Richmond, Va.); host or cells: human synovial fluid
T2 sequence (P14555 21-144): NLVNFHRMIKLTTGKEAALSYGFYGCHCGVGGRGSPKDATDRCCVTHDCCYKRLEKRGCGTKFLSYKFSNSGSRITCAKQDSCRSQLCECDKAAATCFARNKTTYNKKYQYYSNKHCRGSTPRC
As to the kind of experiment: Millimolar Calcium-Dependent PLA2 Assay (human synovial fluid PLA2, [14C]-oleate labeled E. coli substrate). It counts as biochemical. The note with it: pH 7.0, 5 mM CaCl2, 30 min at 37° C., ">>" = little or no inhibition at highest concentration used.
Text: as §1, §2
Purified human synovial fluid PLA2 (purified by the procedure of Fawzy, A. A. and Franson, R. C. Biophys. J. 49, 533a [1986]) was obtained from R. C. Franson (Medical College of Virginia, Richmond, Va.). PLA2 activity was measured by using [^14 C]-oleate labeled autoclaved E. coli as substrate as described by Franson, R. C., Patriarca, P., and Elsbach, P. J., Lipid Res. 15, 380-388 (1974). The assay was performed at 37° C. for 30 min. in a final volume of 100 μL 50 mM Hepes buffer (pH 7.0) containing 150 mM NaCl, 5 mM CaCl2, and E. coli cells (corresponding to 10 nmol phospholipid). The test compound or control vehicle was preincubated with PLA2 for 5 min., followed by adding E. coli to initiate the reaction. The reaction was terminated by adding 2 mL tetrahydrofuran. The reaction product, [^14 C]-oleic acid, was isolated using a 1 mL Bond Elute--NH2 column and counted by liquid scintillation spectrometry.

For a further assay, the system named is rat neonatal myocytes. The note with it: rat neonatal myocytes treated with iodoacetate; Sen et al (cited); cited from earlier work.
Where [3] appears, read: LTB4 production, ">>" = little or no inhibition at highest concentration used, read-out: IC50 HL-60 LTB4.
Setting [4] is: PGE2 production, ">" inhibition but not enough for IC50, ">>" little or no inhibition at highest concentration, read-out: IC50 HL-60 PGE2.
The mark [5] stands for this setting: pH 8.0, 10 mM CaCl2, 5 min at 37° C., ">>" = little or no inhibition at highest concentration used, read-out: IC50 Porcine Pancreatic PLA2.
Setting [6] is: human synovial fluid, read-out: IC50 HSF PLA2.
Where [7] appears, read: IC50 HSF PLA2, human synovial fluid.

Consider 13 compounds from patent US5648349A, “PLA2 inhibitors” (Monsanto Company, priority 1995, dated 1997).

The structures appear in SMILES notation. Where two headings read alike, the source gives them in different places.

T1 sequence (P00592 23-146): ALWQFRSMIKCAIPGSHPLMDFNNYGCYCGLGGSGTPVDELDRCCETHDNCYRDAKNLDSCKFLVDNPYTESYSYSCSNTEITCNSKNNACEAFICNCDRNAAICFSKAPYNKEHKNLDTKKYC

With `CCCCCCCCCCCC#Cc1cccc(C=C(P(=O)(OCC)OCC)P(=O)(OCC)OCC)c1` [Example 1, Tetraethyl [2-[3-(1-tridecynyl)phenyl]ethenylidene]bisphosphonate], the IC50 is 180 nM in the assay with sheep platelet PLA2; 1200 nM with HL-60 cells (setting [3]); 3000 nM in the assay on HL-60 cells (setting [4]); 560 nM in assay [1]; 100000 nM at porcine pancreatic PLA2 (setting [5]); more than 100000 nM in assay [2] (setting [6]). The activation at 100 µM at porcine pancreatic PLA2 (5 min, footnote a to the entry 100 (μM), + = activation) stood at 40%.
Regarding `CCCCCCCCCCCC#Cc1cccc(C=C(P(=O)(O)O)P(=O)(O)O)c1` [Example 2, [2-[3-(1-Tridecynyl)phenyl]ethenylidene]bisphosphonic acid], the half-inhibitory concentration (IC50) in the assay with sheep platelet PLA2 is 11000 nM; in the assay on HL-60 cells (setting [3]), more than 10000 nM; in the assay with HL-60 cells (setting [4]), more than 10000 nM; in assay [1], 450 nM; on porcine pancreatic PLA2, more than 100000 nM; in assay [2] (setting [6]) it was 31000 nM.
For the compound `CCCCCCCCCCCC#Cc1cccc(C=C(P(=O)(O)O)P(=O)(O)O)c1` [Example 3, Disodium [2-[3-(1-tridecynyl)phenyl]ethenylidene]bisphosphonate], the values for the 50% inhibitory concentration (IC50) (in the assay on sheep platelet PLA2; in assay [1]; in assay [2] (setting [7])) were 3200 nM, 360 nM and 38000 nM, respectively.
`CCCCCCCCCCCC#Cc1ccccc1/C=C(\C(=O)OCC)P(=O)(OCC)OCC` [Example 5, Ethyl 2-(diethoxyphosphinyl)-3-[2-(1-tridecynyl)phenyl]-2-E-propenoate]: the IC50 with sheep platelet PLA2 was 2400 nM; in the assay on HL-60 cells (setting [3]), 1300 nM; in the assay on HL-60 cells (setting [4]), 2300 nM; in assay [1], 340 nM; at porcine pancreatic PLA2 (setting [5]) it was more than 100000 nM; in assay [2] (setting [6]), more than 100000 nM.
Regarding `CCCCCCCCCCCC#Cc1ccccc1/C=C(\C(=O)OCC)P(=O)(O)O` [Example 6, Ethyl E-2-phosphono-3-[2-(1-tridecynyl)phenyl]propenoate], the IC50 is 4400 nM in the assay with HL-60 cells (setting [3]), 3500 nM with HL-60 cells (setting [4]), 2500 nM on porcine pancreatic PLA2 (setting [5]) and 16000 nM in assay [2] (setting [6]).
In the case of `CCCCCCCCCCCC#Cc1cccc(P(=O)(OCC)OCC)c1` [Example 8, Diethyl [3-(1-tridecynyl)phenyl]phosphonate], the IC50 with sheep platelet PLA2 was 220 nM; in assay [1] it was 360 nM.
Regarding `CCCCCCCCCCCC#Cc1ccccc1C=C(P(=O)(OCC)OCC)P(=O)(OCC)OCC` [Example 9, Tetraethyl [2-[2-(1-tridecynyl)phenyl]ethenylidene]bisphosphonate], the IC50 is 160 nM with sheep platelet PLA2; 2600 nM in the assay with HL-60 cells (setting [3]); 4400 nM with HL-60 cells (setting [4]); 1500 nM in assay [1]; more than 100000 nM in assay [2] (setting [6]).
Regarding `CCCCCCCCCCCC#Cc1ccccc1C=C(P(=O)(O)O)P(=O)(O)O` [Example 10, [2-[2-(1-Tridecynyl)phenyl]ethenylldene]bisphosphonic acid], the IC50 is 50000 nM in the assay on sheep platelet PLA2; 10000 nM in the assay with HL-60 cells (setting [3]); more than 10000 nM with HL-60 cells (setting [4]); 710 nM in assay [1]; more than 100000 nM on porcine pancreatic PLA2; 50000 nM in assay [2] (setting [6]). Further, the activation at 10 µM in the assay with HL-60 cells (footnote b to the entry 10 (μM), + = activation, LTB4) came to 21%.
For the compound `CCCCCCCCCCCC#Cc1ccccc1C=C(P(=O)(O)O)P(=O)(O)O` [Example 11, Disodium [2-[2-(1-tridecynyl)phenyl]ethenylidene]bisphosphonate], the IC50 in the assay on sheep platelet PLA2 turned out to be 2800 nM; in assay [1], 1900 nM; in assay [2] (setting [7]) it was 25000 nM.
For the compound `CCCCCCCCCCCC#Cc1ccccc1/C=C/P(=O)(OCC)OCC` [Example 13, Diethyl E-2-[2-(1-tridecynyl)phenyl]ethenylphosphonate], the half-inhibitory concentration (IC50) is 1100 nM in the assay on sheep platelet PLA2 and 3000 nM in assay [1].
Take `CCCCCCCCCCCC#Cc1ccccc1/C=C/P(=O)(O)O` [Example 14, 2-[2-(1-Tridecynyl)phenyl]ethenylphosphonic acid]: the IC50 in the assay with sheep platelet PLA2 was 2900 nM; in assay [1], 4500 nM.
For `CCCCCCCCC(=O)NCC#Cc1ccccc1C=C(P(=O)(OCC)OCC)P(=O)(OCC)OCC` [Example 18, Tetraethyl [2-[2-[3-[(1-oxononyl)amino]-1-propynyl]phenyl]ethenylidene]bisphosphonate], the values for the IC50 (in the assay with sheep platelet PLA2; in assay [1]) were approximately 100000 nM and more than 100000 nM, respectively.
For `COC1=CCC2=C(CCC3C2CC[C@@]2(C)C3CC[C@@H]2N(C)CCCN(C)C)C1` (some centres unmarked) [U26,384], the “release of arachidonic acid, phospholipid degradation, sarcolemmal membrane defects and release of creatine kinase induced by iodoacetate” value in the assay on rat neonatal myocytes is “prevented the release of arachidonic acid, phospholipid degradation, sarcolemmal membrane defects and the release of creatine kinase”.

The term IC50 denotes the concentration that inhibits the measured activity by half.
